Calls of active or inactive are those of the source. The rule behind the calls is not given here.
Columns and labels:
[1] = target: T1, Serine/threonine-protein kinase AKT (Homo sapiens) (UniProt P31751+Q9Y243+P31749); experiment: Inhibition of human Akt at 100 nM in presence of [33P]-ATP by radiometric analysis relative to control; type: protein assay
U-87 MG [2] = experiment: Activation of ERK in human U87MG cells at 0.1 to 10 uM incubated for 48 hrs by Western blot analysis; type: cell-based; settings: dose microM 0.1-10, time 48.0 hrs
Focal adhesion kinase 1 [3] = target: T2, Focal adhesion kinase 1 (Homo sapiens, UniProt Q05397); experiment: Covalent inhibition of recombinant human N-terminal His-tagged FAK (393 to 698 residues) expressed in baculovirus infected Sf9 insect cells using Poly (4:1 Glu, Tyr) as substrate preincubated for 2 to 60 mins followed by substrate addition and measured after 1 hr by ADP-glo luminescence assay
Target sequence in this assay (Q05397 whole entry, the tested form may be a part): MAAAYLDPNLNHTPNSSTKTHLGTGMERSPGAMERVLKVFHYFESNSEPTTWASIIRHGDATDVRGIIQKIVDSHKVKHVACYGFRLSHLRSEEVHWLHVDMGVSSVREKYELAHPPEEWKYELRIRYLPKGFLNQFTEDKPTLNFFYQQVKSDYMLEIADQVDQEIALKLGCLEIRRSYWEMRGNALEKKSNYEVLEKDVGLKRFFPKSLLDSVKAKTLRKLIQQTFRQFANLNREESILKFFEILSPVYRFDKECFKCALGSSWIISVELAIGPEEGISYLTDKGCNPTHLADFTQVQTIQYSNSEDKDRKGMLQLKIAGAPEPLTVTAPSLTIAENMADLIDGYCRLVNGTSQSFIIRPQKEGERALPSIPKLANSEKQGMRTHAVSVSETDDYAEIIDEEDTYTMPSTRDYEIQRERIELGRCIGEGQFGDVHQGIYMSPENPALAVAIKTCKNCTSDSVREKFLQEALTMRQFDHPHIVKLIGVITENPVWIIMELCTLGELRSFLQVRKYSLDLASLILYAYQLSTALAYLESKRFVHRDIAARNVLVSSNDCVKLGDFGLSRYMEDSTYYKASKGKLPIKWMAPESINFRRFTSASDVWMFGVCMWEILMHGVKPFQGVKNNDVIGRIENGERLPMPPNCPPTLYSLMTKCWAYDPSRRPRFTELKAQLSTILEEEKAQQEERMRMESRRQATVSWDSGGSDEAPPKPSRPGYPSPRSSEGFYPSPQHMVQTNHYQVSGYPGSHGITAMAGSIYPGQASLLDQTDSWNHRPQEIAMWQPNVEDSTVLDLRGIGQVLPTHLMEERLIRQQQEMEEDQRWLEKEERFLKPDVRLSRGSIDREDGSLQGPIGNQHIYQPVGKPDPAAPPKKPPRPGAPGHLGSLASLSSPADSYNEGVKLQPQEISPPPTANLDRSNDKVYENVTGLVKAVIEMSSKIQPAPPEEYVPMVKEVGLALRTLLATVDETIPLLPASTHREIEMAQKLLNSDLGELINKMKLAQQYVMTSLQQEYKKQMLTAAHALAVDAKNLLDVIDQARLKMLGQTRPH

[4] = target: Protein-tyrosine kinase 2-beta (Homo sapiens) (UniProt Q14289); experiment: Inhibition of recombinant human full length PYK2 at 100 nM in presence of [gamma32P]-ATP by radiometric analysis relative to control
U-87 MG [5] = experiment: Induction of apoptosis in human U87MG cells assessed as early apoptotic cells at 10 uM incubated for 48 hrs by Annexin-V/propidium iodide staining based flow cytometric method (reference value: 4.55 %); type: functional, U-87MG ATCC
U-87 MG [6] = experiment: Induction of cell cycle arrest in human U87MG cells assessed as multi-nucleated giant cells at 1 uM incubated for 48 hrs by TO-PRO-3 dye based immunocytochemistry analysis; type: functional; settings: U-87MG ATCC
A 172 = experiment: Cytotoxicity against human A172 cells assessed as reduction in cell viability incubated for 48 hrs by MTT assay; settings: A 172, 48 h
[7] = target: Platelet-derived growth factor receptor alpha (Homo sapiens) (UniProt P16234); experiment: Inhibition of human recombinant PDGFRA at 100 nM by [gamma-33ATP] radiometric assay relative to control
Focal adhesion kinase 1 [8] = target: T2, Focal adhesion kinase 1; settings: U-87 MG, dose microM 0.1-10, time 48.0 hrs
Target sequence in this assay (Q05397 2-1052 limits assumed): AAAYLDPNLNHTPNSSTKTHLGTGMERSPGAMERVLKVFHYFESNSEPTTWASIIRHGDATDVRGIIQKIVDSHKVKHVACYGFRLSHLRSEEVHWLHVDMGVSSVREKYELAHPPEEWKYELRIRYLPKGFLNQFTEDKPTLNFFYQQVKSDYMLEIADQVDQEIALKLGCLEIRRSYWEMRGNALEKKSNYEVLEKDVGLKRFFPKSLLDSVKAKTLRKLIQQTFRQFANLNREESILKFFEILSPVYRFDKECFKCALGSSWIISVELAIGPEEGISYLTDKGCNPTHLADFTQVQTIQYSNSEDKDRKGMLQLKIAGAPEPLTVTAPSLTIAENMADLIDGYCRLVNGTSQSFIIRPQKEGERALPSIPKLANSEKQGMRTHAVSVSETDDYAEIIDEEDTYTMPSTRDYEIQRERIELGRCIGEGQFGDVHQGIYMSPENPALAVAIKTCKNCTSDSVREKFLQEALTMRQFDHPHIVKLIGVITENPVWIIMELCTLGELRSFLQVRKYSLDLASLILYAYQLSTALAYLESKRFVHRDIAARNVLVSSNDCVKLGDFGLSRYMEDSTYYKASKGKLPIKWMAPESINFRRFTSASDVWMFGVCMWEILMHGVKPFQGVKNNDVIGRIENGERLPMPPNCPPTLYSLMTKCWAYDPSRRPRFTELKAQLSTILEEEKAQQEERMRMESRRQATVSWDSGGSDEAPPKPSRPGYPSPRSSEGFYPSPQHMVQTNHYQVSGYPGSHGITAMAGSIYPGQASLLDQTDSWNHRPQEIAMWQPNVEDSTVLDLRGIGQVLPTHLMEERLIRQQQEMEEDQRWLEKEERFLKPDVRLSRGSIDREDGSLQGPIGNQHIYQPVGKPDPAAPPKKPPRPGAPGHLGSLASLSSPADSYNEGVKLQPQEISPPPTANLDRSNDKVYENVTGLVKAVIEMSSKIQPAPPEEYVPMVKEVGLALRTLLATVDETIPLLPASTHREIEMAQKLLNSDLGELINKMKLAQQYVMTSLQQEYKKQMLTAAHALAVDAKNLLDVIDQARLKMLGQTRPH

Focal adhesion kinase 1 [9] = target: T2, Focal adhesion kinase 1; settings: U-87 MG, dose microM 0.6-3, time 48.0 hrs
Target sequence in this assay (Q05397 2-1052 limits assumed): as above

Focal adhesion kinase 1 [10] = target: T2, Focal adhesion kinase 1; experiment: Inhibition of human recombinant FAK at 100 nM by [gamma32P]-ATP radiometric analysis relative to control
Target sequence in this assay (Q05397 2-1052 limits assumed): as above

U-87 MG [11] = experiment: Induction of cell cycle arrest in human U87MG cells assessed as accumulation in G2/M phase at 1 uM incubated for 48 hrs by propidium iodide staining based flow cytometry analysis (reference value: 28.9 +/- 2.1 %); type: functional, U-87MG ATCC; settings: dose microM 1-10
U-87 MG [12] = experiment: Induction of apoptosis in human U87MG cells assessed as late apoptotic cells at 10 uM incubated for 48 hrs by Annexin-V/propidium iodide staining based flow cytometric method (reference value: […]); type: functional, U-87MG ATCC
[13] = target: Insulin-like growth factor 1 receptor (Homo sapiens) (UniProt P08069); experiment: Inhibition of human recombinant IGF1R at 100 nM by [gamma-33ATP] radiometric assay relative to control
U-87 MG [14] = experiment: Induction of cell cycle arrest in human U87MG cells assessed as accumulation at S phase at 1 uM incubated for 48 hrs by propidium iodide staining based flow cytometry analysis (reference value: 19.5 %); type: functional, U-87MG ATCC
[15] = target: Epidermal growth factor receptor (Homo sapiens) (UniProt P00533); experiment: Inhibition of human recombinant EGFR at 100 nM in presence of [gamma33P]ATP by radiometric assay relative to control
U-87 MG [16] = experiment: Inhibition of cell adhesion in human U87MG cells assessed as increase in appearance of stress fiber at 1 uM incubated for 48 hrs by FITC-conjugated phalloidin and TO-PRO3 staining based microscopic analysis; type: functional; settings: U-87MG ATCC
Homo sapiens = species on record: Homo sapiens; experiment: Inhibition of human recombinant Erk at 100 nM measured in presence of [33P]-ATP by radiometric analysis relative to control
[17] = target: Proto-oncogene tyrosine-protein kinase Src (Homo sapiens) (UniProt P12931); experiment: Inhibition of human recombinant Src at 100 nM in presence of [gamma33P]ATP by radiometric assay relative to control
[18] = target: Insulin receptor (Homo sapiens) (UniProt P06213); experiment: Inhibition of human recombinant IR at 100 nM by [gamma-33ATP] radiometric analysis relative to control
U-87 MG [19] = experiment: Induction of apoptosis in human U87MG cells assessed as necrotic cells at 10 uM incubated for 48 hrs by Annexin-V/propidium iodide staining based flow cytometric method (reference value: […]); type: functional, U-87MG ATCC
U-87 MG [20] = experiment: Induction of cell cycle arrest in human U87MG cells assessed as increase in accumulation at G2 phase at 1 uM incubated for 48 hrs by propidium iodide staining based flow cytometry analysis; type: functional; settings: U-87MG ATCC
[21] = target: Fibroblast growth factor receptor 1 (Homo sapiens) (UniProt P11362); experiment: Inhibition of human recombinant FGFR1 (456 to 765 residues) at 100 nM in presence of [gamma33P]ATP by radiometric assay relative to control
[22] = target: Mast/stem cell growth factor receptor Kit (Homo sapiens) (UniProt P10721); experiment: Inhibition of human recombinant c-kit at 100 nM in presence of [gamma33P]ATP by radiometric assay relative to control
U-87 MG [23] = experiment: Induction of apoptosis in human U87MG cells assessed as live cells at 10 uM incubated for 48 hrs by Annexin-V/propidium iodide staining based flow cytometric method (reference value: 94.2%); type: functional, U-87MG ATCC
Focal adhesion kinase 1 [24] = target: T2, Focal adhesion kinase 1; settings: U-87 MG, dose microM 0.1-10, time 48.0 hrs; remark: listed apart in the source
Target sequence in this assay (Q05397 2-1052 limits assumed): as above

U-87 MG [25] = experiment: Cytotoxicity against human U-87 MG cells assessed as reduction in cell viability incubated for 48 hrs by MTT assay
[26] = target: T1, Serine/threonine-protein kinase AKT (Homo sapiens); experiment: Activation of AKT in human U87MG cells at 0.1 to 10 uM incubated for 48 hrs by Western blot analysis; type: cell-based; settings: U-87 MG, dose microM 0.1-10, time 48.0 hrs
U-87 MG [27] = experiment: Inhibition of cell migration in human U87MG cells assessed as reduction of cell mobility at 0.2 to 1 uM measured at 24 to 48 hrs by scratch wound assay; type: functional, cell-based; settings: U-87MG ATCC, dose microM 0.2-1, time hrs 24-48
U-251 = experiment: Cytotoxicity against human U251 cells assessed as reduction in cell viability incubated for 48 hrs by MTT assay; settings: U-251, 48 h
U-87 MG [28] = experiment: Induction of cell cycle arrest in human U87MG cells assessed as accumulation at G0/G1 phase at 1 uM incubated for 48 hrs by propidium iodide staining based flow cytometry analysis (reference value: 51.6 +/- […]); type: functional, U-87MG ATCC
U-87 MG [29] = experiment: Induction of cellular senescence in human U87MG cells assessed as flat and enlarged cells at 1 uM incubated for 48 hrs by TO-PRO-3 dye based immunocytochemistry analysis; type: functional, cell-based; settings: U-87MG ATCC
Focal adhesion kinase 1 [30] = target: T2, Focal adhesion kinase 1; settings: U-87 MG, dose microM 0.1-10, time 48.0 hrs; remark: listed apart in the source
Target sequence in this assay (Q05397 2-1052 limits assumed): as above

Focal adhesion kinase 1 [31] = target: T2, Focal adhesion kinase 1; settings: U-87 MG, dose microM 0.1-5, time 48.0 hrs
Target sequence in this assay (Q05397 2-1052 limits assumed): as above

Focal adhesion kinase 1 [32] = target: T2, Focal adhesion kinase 1; experiment: Inhibition of recombinant human N-terminal His-tagged FAK (393 to 698 residues) expressed in baculovirus infected Sf9 insect cells using Poly (4:1 Glu, Tyr) as substrate measured after 1 hr by ADP-glo luminescence assay
Target sequence in this assay (Q05397 whole entry, the tested form may be a part): as the sequence (Q05397 whole entry, the tested form may be a part) above

Focal adhesion kinase 1 [33] = target: T2, Focal adhesion kinase 1; settings: U-87 MG, dose microM 0.1-5, time 48.0 hrs; remark: listed apart in the source

T1 sequence (P31749 whole entry, looked up): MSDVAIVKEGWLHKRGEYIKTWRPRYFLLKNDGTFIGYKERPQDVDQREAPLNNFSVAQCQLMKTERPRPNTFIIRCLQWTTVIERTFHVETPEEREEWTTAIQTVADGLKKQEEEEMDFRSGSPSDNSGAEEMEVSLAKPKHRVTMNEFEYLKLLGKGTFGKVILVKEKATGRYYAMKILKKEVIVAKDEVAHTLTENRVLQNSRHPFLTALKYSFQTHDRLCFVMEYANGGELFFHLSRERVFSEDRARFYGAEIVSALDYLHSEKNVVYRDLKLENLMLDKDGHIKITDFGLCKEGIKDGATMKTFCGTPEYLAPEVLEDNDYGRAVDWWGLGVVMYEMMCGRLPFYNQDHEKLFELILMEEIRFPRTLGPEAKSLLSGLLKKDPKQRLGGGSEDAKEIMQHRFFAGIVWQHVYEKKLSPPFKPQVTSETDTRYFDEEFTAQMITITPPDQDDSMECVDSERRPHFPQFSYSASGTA
T1 sequence (P31751 whole entry, looked up): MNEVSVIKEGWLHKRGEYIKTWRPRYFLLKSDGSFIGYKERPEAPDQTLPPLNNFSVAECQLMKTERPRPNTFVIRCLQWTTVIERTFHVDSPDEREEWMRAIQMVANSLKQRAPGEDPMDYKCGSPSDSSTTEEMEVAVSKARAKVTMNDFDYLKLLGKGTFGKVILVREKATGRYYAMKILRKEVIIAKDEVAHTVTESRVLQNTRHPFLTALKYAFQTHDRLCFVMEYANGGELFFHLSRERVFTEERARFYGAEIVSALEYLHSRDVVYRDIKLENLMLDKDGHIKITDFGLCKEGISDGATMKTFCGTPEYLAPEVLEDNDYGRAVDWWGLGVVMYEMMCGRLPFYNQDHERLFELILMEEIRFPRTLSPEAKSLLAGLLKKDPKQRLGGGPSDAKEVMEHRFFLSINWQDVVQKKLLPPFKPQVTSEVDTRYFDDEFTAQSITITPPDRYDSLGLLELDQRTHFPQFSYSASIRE
T1 sequence (Q9Y243 whole entry, looked up): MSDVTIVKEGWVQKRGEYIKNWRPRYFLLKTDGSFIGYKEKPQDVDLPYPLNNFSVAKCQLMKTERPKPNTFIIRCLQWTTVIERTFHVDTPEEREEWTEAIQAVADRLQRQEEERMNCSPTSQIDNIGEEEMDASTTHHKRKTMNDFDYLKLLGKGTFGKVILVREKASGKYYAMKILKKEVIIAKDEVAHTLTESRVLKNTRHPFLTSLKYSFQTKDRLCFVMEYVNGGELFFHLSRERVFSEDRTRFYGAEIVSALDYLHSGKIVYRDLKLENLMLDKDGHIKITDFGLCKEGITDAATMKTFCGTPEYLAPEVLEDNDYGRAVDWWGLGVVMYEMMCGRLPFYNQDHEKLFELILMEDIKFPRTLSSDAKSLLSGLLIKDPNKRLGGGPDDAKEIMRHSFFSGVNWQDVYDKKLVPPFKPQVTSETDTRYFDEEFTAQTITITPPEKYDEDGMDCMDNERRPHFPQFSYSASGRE
Chain of Fibroblast growth factor receptor 1 (Homo sapiens) (P11362 22-822 limits assumed): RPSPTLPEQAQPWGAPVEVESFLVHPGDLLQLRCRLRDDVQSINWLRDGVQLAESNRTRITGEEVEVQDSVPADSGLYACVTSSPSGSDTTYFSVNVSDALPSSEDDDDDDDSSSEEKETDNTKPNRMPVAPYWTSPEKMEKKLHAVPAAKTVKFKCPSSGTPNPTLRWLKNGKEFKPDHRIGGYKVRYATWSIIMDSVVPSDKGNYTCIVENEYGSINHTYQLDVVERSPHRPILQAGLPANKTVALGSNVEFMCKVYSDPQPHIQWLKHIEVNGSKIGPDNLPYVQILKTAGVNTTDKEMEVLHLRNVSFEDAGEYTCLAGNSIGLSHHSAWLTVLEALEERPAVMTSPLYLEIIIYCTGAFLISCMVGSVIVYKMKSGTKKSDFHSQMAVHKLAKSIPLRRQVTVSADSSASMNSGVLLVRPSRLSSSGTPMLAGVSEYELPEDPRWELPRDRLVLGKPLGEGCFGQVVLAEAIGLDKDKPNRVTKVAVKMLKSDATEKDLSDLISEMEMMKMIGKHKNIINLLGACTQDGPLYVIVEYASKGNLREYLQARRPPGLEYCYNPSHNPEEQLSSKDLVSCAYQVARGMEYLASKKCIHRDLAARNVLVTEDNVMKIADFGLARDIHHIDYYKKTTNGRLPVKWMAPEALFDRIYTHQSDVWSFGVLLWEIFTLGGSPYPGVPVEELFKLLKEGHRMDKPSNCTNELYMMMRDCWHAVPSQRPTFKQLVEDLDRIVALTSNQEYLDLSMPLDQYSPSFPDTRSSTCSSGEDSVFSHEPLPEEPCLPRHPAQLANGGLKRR

C=CC(=O)NCCNc1c(NCc2ccc(Nc3ncc(Cl)c(Nc4ccccc4C(=O)NC)n3)cc2)c(=O)c1=O
inhibition [1]: 3.7%
Activity (U-87 MG [2]): inactive
Ki (Focal adhesion kinase 1 [3]): 0.00023 µM
inhibition [4]: 97.6%
Activity (U-87 MG [5]): 6.05%
Activity (U-87 MG [6]): Active
IC50 (A 172): 0.65 µM
inhibition [7]: 91%
inhibition (Focal adhesion kinase 1 [8]): Dose-dependent effect
inhibition (Focal adhesion kinase 1 [9]): Dose-dependent effect
inhibition (Focal adhesion kinase 1 [10]): 98.1%
Activity (U-87 MG [11]): 80.8%
Activity (U-87 MG [12]): 2.45%
inhibition [13]: 91.5%
Activity (U-87 MG [14]): 10%
inhibition [15]: 47.2%
inhibition (U-87 MG [16]): Active
inhibition (Homo sapiens): 14.2%
inhibition [17]: 52.1%
inhibition [18]: 57.6%
Activity (U-87 MG [19]): 0.67%
Activity (U-87 MG [20]): Active
inhibition [21]: 87.1%
inhibition [22]: 0.2%
Activity (U-87 MG [23]): 90.8%
inhibition (Focal adhesion kinase 1 [24]): Dose-dependent effect
IC50 (U-87 MG [25]): 2.2 µM
Activity [26]: inactive
inhibition (U-87 MG [27]): Active
IC50 (U-251): 0.22 µM
Activity (U-87 MG [28]): 9.2%
Activity (U-87 MG [29]): Active
inhibition (Focal adhesion kinase 1 [30]): Dose-dependent effect
inhibition (Focal adhesion kinase 1 [31]): inactive
IC50 (Focal adhesion kinase 1 [32]): 0.0006 µM
inhibition (Focal adhesion kinase 1 [33]): Dose-dependent effect

Source: ChEMBL document CHEMBL4699600, “Design, Synthesis, and Biological Evaluation of Covalent Inhibitors of Focal Adhesion Kinase (FAK) against Human Malignant Glioblastoma” (J Med Chem, 2020)
